Data as given in the supplement of paper PMC10307832.

Experiments:
Experiment in all cases: relative viability (nuclei count vs DMSO), 5 days (fraction); higher = more cells survive
[1] = compound: O=S(=O)(c1ccccc1)N(CC(F)(F)F)c1ccc(C(O)(C(F)(F)F)C(F)(F)F)cc1 + CC(=O)Nc1cccc(-n2c(=O)n(C3CC3)c(=O)c3c(Nc4ccc(I)cc4F)n(C)c(=O)c(C)c32)c1 [Trametinib] (partner 0.02 µM)
Procedure, shortened: (§1)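 Lung cancer cell lines, seeded in 1536-well plates, were treated the following day by pin tool with a single drug or with five library-drug doses (not always all listed) in √10 steps on top of a fixed anchor-drug dose. Cells were fixed and nuclei stained in one step after 5 days, and nuclei were counted. Relative viability is the nuclei count for treated wells divided by that for vehicle wells, reported as medians of duplicate plates.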

[2] = compound: O=S(=O)(c1ccccc1)N(CC(F)(F)F)c1ccc(C(O)(C(F)(F)F)C(F)(F)F)cc1 + O=C(c1cc(Cc2n[nH]c(=O)c3ccccc23)ccc1F)N1CCN(C(=O)C2CC2)CC1 [Olaparib] (partner 8 µM)
Procedure, shortened: as §1

RO-3306 + Linsitinib = compound: C1=CC2=C(C=CC(=C2)C=C3C(=O)NC(=NCC4=CC=CS4)S3)N=C1 [RO-3306] + C[C@]1(O)C[C@@H](c2nc(-c3ccc4ccc(-c5ccccc5)nc4c3)c3c(N)nccn32)C1 [Linsitinib] (partner 1 µM)
Procedure, shortened: as §1

RO-3306 + Phenformin = compound: C1=CC2=C(C=CC(=C2)C=C3C(=O)NC(=NCC4=CC=CS4)S3)N=C1 [RO-3306] + N=C(N)NC(=N)NCCc1ccccc1 [Phenformin] (partner 250 µM)
Procedure, shortened: as §1

[3] = compound: O=S(=O)(c1ccccc1)N(CC(F)(F)F)c1ccc(C(O)(C(F)(F)F)C(F)(F)F)cc1 + C[C@]1(O)C[C@@H](c2nc(-c3ccc4ccc(-c5ccccc5)nc4c3)c3c(N)nccn32)C1 [Linsitinib] (partner 1 µM)
Procedure, shortened: as §1

Cell Line | relative viability ([1]; first compound 0.8 µM) | relative viability ([1]; first compound 2.53 µM) | relative viability ([1]; first compound 8 µM) | relative viability ([2]; first compound 0.8 µM) | relative viability ([2]; first compound 2.53 µM) | relative viability ([2]; first compound 8 µM) | relative viability (RO-3306 + Linsitinib; first compound 0.01 µM) | relative viability (RO-3306 + Linsitinib; first compound 0.03162 µM) | relative viability (RO-3306 + Linsitinib; first compound 0.1 µM) | relative viability (RO-3306 + Linsitinib; first compound 0.3162 µM) | relative viability (RO-3306 + Linsitinib; first compound 1 µM) | relative viability (RO-3306 + Phenformin; first compound 0.01 µM) | relative viability (RO-3306 + Phenformin; first compound 0.03162 µM) | relative viability (RO-3306 + Phenformin; first compound 0.1 µM) | relative viability (RO-3306 + Phenformin; first compound 0.3162 µM) | relative viability (RO-3306 + Phenformin; first compound 1 µM) | relative viability ([3]; first compound 0.8 µM) | relative viability ([3]; first compound 2.53 µM) | relative viability ([3]; first compound 8 µM)
201T | 0.712 | 0.666 | 0.681 | 0.815 | 0.793 | 0.819 | 1.11 | 1.01 | 1.08 | 1.09 | 0.999 | 0.499 | 0.355 | 0.46 | 0.414 | 0.369 | 0.996 | 0.941 | 1.04
A549 | – | – | – | 0.299 | 0.278 | 0.204 | 0.762 | 0.305 | 0.622 | 0.69 | 0.623 | 0.225 | 0.802 | – | 0.124 | 1.12 | 0.697 | 0.585 | 0.603
A-427 | 0.722 | 0.645 | 0.682 | 0.807 | 0.673 | 0.778 | 1.14 | 1.1 | 1.07 | 1.06 | 1.21 | 0.339 | 0.241 | 0.312 | 0.295 | 0.243 | 1.04 | 1.03 | 1.12
ABC-1 | – | – | – | – | 0.763 | 0.638 | 0.906 | 0.58 | 0.697 | 0.907 | 0.792 | 0.238 | 0.222 | 0.268 | 0.27 | 0.232 | 0.85 | 0.581 | 0.485
BEN | 1.05 | 0.888 | 1.02 | 0.889 | 0.875 | 0.876 | 1.03 | 0.672 | 0.835 | 0.972 | 0.916 | 0.298 | 0.266 | 0.26 | 0.252 | 0.263 | 1.09 | 0.858 | 0.82
CAL-12T | 0.247 | 0.265 | 0.238 | 0.686 | 0.616 | 0.591 | 0.889 | 0.607 | 0.889 | 0.824 | 0.874 | 0.56 | 0.445 | 0.511 | 0.597 | 0.674 | 0.719 | 0.499 | 0.542
COR-L23 | 0.657 | 0.583 | 0.539 | 0.357 | 0.35 | 0.34 | 1.02 | – | 0.866 | 0.938 | 1.06 | 0.475 | 0.391 | 0.455 | 0.409 | 0.435 | 1.12 | 0.971 | 0.748
COR-L 105 | 0.39 | 0.424 | 0.382 | 0.69 | 0.602 | 0.546 | 1.08 | 0.912 | 0.923 | 1.08 | 0.861 | 0.499 | 0.386 | 0.417 | 0.517 | 0.429 | 0.896 | 0.758 | 0.96
Calu-6 | – | – | – | 0.562 | 0.58 | 0.571 | 1.1 | 0.695 | 0.978 | 0.997 | 1.15 | – | – | – | – | – | 0.908 | 0.826 | 0.926
ChaGo-K-1 | 0.998 | 0.862 | 0.884 | 0.466 | 0.427 | 0.388 | – | – | – | – | – | 0.579 | 0.404 | 0.447 | 0.443 | 0.337 | – | – | –
EBC-1 | – | – | – | 0.692 | 0.584 | 0.597 | 1.03 | 0.556 | 0.977 | 1.15 | 1.05 | – | – | – | – | – | 0.911 | 0.47 | 0.695
EKVX | 0.3 | 0.272 | 0.324 | 0.836 | 0.757 | 0.661 | 1.13 | 0.678 | 1.07 | 1.21 | 0.78 | 0.245 | 0.196 | 0.218 | 0.217 | 0.22 | 0.897 | 0.946 | 0.931
EMC-BAC-2 | 0.813 | 0.735 | 0.758 | 0.471 | 0.47 | 0.483 | 0.901 | 0.678 | 0.797 | 0.851 | 0.773 | 0.516 | 0.401 | 0.536 | 0.497 | 0.508 | 0.902 | 0.846 | 0.796
EPLC-272H | 0.274 | 0.289 | 0.269 | 0.888 | 0.859 | 0.645 | 1.2 | 0.768 | 1.24 | 1.04 | 0.96 | 0.312 | 0.399 | 0.308 | 0.25 | 0.317 | 1.12 | 1.32 | 1.11
H3255 | 0.623 | 0.565 | 0.649 | 0.533 | 0.488 | 0.439 | 1.17 | 0.814 | 1.01 | 0.918 | 0.945 | 0.392 | 0.326 | 0.315 | 0.32 | 0.332 | 0.962 | 0.867 | 0.832
HARA | 0.561 | – | 0.634 | 0.995 | – | 0.678 | 0.861 | 0.789 | 0.902 | 1.02 | 1.35 | 0.471 | 0.357 | 0.504 | 0.429 | 0.466 | 0.901 | 0.847 | 0.776
HCC-15 | 0.37 | 0.302 | 0.291 | 0.737 | 0.581 | 0.644 | 0.924 | 0.755 | 0.863 | 0.892 | 0.839 | 0.519 | 0.333 | 0.459 | 0.464 | 0.423 | 0.798 | 0.758 | 0.812
HCC-44 | 1.01 | 0.925 | 0.918 | 0.932 | 0.969 | 0.999 | 0.718 | 0.674 | 0.68 | 0.663 | 0.693 | 0.226 | 0.21 | 0.163 | 0.185 | 0.196 | 0.717 | 0.705 | 0.658
